25 compounds from EP4321514B1, “COMPOUND HAVING ALK INHIBITORY ACTIVITY, PREPARATION METHOD THEREFOR AND USE THEREOF” (CGeneTech (Suzhou, China) Co., Ltd., priority 2021, dated 2022) can be followed below.

Experiment [1] deals with human anaplastic large cell lymphoma cell Karpas 299. The experiment can be described thus: ALK gene fusion cell proliferation inhibition test (CCK-8). The format is cell-based. The settings on record: 72 hours incubation, CCK-8, absorbance at 450 nm. How it is done: The 96-well culture plate was placed in a 5 % carbon dioxide incubator at 37 °C to be cultured overnight. A test compound was formulated into a 10 mM storage solution with DMSO, and the 10mM storage solution was gradually diluted with DMSO at a dilution ration of 1:4 to obtain 9 concentration gradients of solutions of the test compound. The test compound was diluted with culture medium to 5 times the set final concentration of corresponding action, and the diluted solution of the test compound was added at 25 µL/well to corresponding cell wells according to the set compound layout, and then incubated in a 5 % carbon dioxide incubator at 37 °C for 72 hours. After 72 hours, 10 µL of CCK-8 was added into a cell culture medium, and the culture solution was sucked from adherent cells, then a freshly prepared CCK-8 detection solution was added and the cells were incubated in a 37 °C incubator for 1-4 hours. The absorbance at 450 nm wavelength on the SpectraMax i3X Microplate Reader was measured after gently shaking, with the absorbance at 650 nm as a reference.

Another experiment concerns the target T1, ALK kinase (Homo sapiens, UniProt Q9UM73).
T1 construct: purchased Thermo Scientific
The experiment can be described thus: ALK kinase inhibition test. In kind it is biochemical. The note with it: 0.4 ng/well ALK kinase, 5 µM ATP, fluorescence 665 nm/615 nm. The protocol:
The inhibitory activity of the compound in the present application on ALK kinase will be determined through in vitro tests, which can be represented by IC50 value.
4 µL of the diluted solution of the test compound and 2 µL of 0.4 ng/well ALK kinase solution (Thermo Scientific) were added into reaction wells in turn, incubated for 10 min at room temperature, then 4 µL of 0.7 µM biotin-labeled tyrosine kinase substrate and 5 µM ATP solution were added to start the kinase reaction.
Software Graphpad Prism 6 was used to fit an IC50 curve and calculate an IC50 value.

Structures are written as SMILES.

T1 sequence (Q9UM73 19-1620): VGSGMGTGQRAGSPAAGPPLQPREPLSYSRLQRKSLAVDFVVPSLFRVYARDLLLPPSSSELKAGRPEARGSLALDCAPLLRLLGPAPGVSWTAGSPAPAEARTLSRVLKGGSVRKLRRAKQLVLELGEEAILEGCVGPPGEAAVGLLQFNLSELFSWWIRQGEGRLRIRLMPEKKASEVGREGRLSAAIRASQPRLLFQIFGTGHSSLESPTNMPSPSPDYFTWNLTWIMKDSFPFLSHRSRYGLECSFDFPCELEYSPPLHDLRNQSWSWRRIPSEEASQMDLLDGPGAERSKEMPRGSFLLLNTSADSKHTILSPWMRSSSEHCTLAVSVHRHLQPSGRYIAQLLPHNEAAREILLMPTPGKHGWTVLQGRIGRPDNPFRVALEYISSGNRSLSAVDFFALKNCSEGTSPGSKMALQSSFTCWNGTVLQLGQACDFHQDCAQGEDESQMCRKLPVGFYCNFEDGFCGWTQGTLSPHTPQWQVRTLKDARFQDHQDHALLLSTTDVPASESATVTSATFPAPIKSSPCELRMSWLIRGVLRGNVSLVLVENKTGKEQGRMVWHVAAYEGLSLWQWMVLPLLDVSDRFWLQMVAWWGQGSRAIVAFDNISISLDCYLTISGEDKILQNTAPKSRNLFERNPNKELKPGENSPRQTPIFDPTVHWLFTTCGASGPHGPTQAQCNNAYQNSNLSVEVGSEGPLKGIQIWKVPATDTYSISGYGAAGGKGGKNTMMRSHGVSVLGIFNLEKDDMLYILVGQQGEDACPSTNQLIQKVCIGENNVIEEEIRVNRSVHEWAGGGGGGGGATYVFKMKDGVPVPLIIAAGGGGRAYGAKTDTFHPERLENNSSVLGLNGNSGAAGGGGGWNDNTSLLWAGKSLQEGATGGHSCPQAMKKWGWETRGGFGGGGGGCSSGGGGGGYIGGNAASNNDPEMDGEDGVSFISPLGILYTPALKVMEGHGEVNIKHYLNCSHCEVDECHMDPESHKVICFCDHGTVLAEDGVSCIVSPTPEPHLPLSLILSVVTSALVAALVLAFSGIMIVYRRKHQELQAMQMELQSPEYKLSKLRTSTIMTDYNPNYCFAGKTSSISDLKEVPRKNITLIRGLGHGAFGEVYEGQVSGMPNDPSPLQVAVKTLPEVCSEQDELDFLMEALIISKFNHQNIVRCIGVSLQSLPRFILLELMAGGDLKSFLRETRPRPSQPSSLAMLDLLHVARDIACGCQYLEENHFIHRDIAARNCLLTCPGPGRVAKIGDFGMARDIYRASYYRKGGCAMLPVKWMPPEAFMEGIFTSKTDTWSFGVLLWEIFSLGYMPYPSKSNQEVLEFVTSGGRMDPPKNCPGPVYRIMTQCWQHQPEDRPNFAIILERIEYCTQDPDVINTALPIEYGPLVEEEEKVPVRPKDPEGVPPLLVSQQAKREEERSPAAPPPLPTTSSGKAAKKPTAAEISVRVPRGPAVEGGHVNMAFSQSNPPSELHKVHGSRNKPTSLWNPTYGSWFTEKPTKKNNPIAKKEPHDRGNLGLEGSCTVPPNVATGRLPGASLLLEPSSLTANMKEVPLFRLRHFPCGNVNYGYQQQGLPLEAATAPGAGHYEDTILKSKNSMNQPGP

By IC50 is commonly meant the point on the concentration scale where inhibition reaches its midpoint. Regarding `C#Cc1ccc2c3c([nH]c2c1)C(C)(C)c1cc(N2CCC(N4CCOCC4)CC2)c(CC)cc1C3=O` [Example E1, 9-ethyl-3-ethynyl-6,6-dimethyl-8-(4-morpholinopiperidin-1-yl)-5,6-dihydro-11H-benzo[b]carbazol-11-one], the IC50 in experiment [1] was determined as 7.34 nM; against ALK kinase it was 5.09 nM.
Regarding `C#Cc1ccc2c3c([nH]c2c1)C(C)(C)c1cc(N2CCN(C)CC2)c(CC)cc1C3=O` [Example E2, 9-ethyl-3-ethynyl-6,6-dimethyl-8-(4-methylpiperazin-1-yl)-5,6-dihydro-11H-benzo[b]carbazol-11-one], the IC50 in experiment [1] was determined as 18.1 nM; on ALK kinase, 7.38 nM.
For `C#Cc1ccc2c3c([nH]c2c1)C(C)(C)c1cc(N2CCN(C4CC4)CC2)c(CC)cc1C3=O` [Example E3, 8-(4-cyclopropylpiperazin-1-yl)-9-ethyl-3-ethynyl-6,6-dimethyl-5,6-dihydro-11H-benzo[b]carbazol-11-one] the same measures were 144 nM and 37.8 nM.
In the case of `C#Cc1ccc2c3c([nH]c2c1)C(C)(C)c1cc(N2CCC(N4CCC4)CC2)c(CC)cc1C3=O` [Example E4, 8-(4-(azetidin-1-yl)piperidin-1-yl)-9-ethyl-3-ethynyl-6,6-dimethyl-5,6-dihydro-11H-benzo[b]carbazol-11-one], the results for the IC50 (in experiment [1]; against ALK kinase) were 32.6 nM and 6.35 nM, respectively.
For the compound `C#Cc1ccc2c3c([nH]c2c1)C(C)(C)c1cc(N2CCC(N4CCCC4)CC2)c(CC)cc1C3=O` [Example E5, 9-ethyl-3-ethynyl-6,6-dimethyl-8-(4-(pyrrolidin-1-yl)piperidin-1-yl)-5,6-dihydro-11H-benzo[b]car bazol-11-one], the IC50 in experiment [1] came out at 24.9 nM; against ALK kinase, 13.8 nM.
For `C#Cc1ccc2c3c([nH]c2c1)C(C)(C)c1cc(N2CCC(N(C)C)CC2)c(CC)cc1C3=O` [Example E6, 8-(4-(dimethylamino)piperidin-1-yl)-9-ethyl-3-ethynyl-6,6-dimethyl-5,6-dihydro-11H-benzo[b]car bazol-11-one] the same measures were 107 nM and 21 nM.
Take `C#Cc1ccc2c3c([nH]c2c1)C(C)(C)c1cc(N2CCNCC2)c(CC)cc1C3=O` [Example E7, 9-ethyl-3-ethynyl-6,6-dimethyl-8-(piperazin-1-yl)-5H-benzo[b]carbazol-11(6H)-one]: the IC50 came to 40.3 nM in experiment [1] and 7.41 nM against ALK kinase.
Consider `C#Cc1ccc2c3c([nH]c2c1)C(C)(C)c1cc(C2CCNCC2)c(CC)cc1C3=O` [Example E8, 9-ethyl-3-ethynyl-6,6-dimethyl-8-(piperidin-4-yl)-5,6-dihydro-11H-benzo[b]carbazol-11-one], for which the concentration for half-maximal inhibition (IC50) in experiment [1] amounted to 109 nM; at ALK kinase, 6.6 nM.
For the compound `C#Cc1ccc2c3c([nH]c2c1)C(C)(C)c1cc(C2CCN(C)CC2)c(CC)cc1C3=O` [Example E9, 9-ethyl-3-ethynyl-6,6-dimethyl-8-(1-methylpiperidin-4-yl)-5,6-dihydro-11H-benzo[b]carbazol-11-one], the IC50 stood at 54.2 nM in experiment [1] and 8.11 nM on ALK kinase.
For the compound `C#Cc1ccc2c3c([nH]c2c1)C(C)(C)c1cc(C2CCN(C4CC4)CC2)c(CC)cc1C3=O` [Example E10, 8-(1-cyclopropylpiperidin-4-yl)-9-ethyl-3-ethynyl-6,6-dimethyl-5,6-dihydro-11H-benzo[b]carbazol-11-one], the IC50 stood at 208 nM in experiment [1] and 20.5 nM on ALK kinase.
Turning to `C#Cc1ccc2c3c([nH]c2c1)C(C)(C)c1cc(N2CCC(N4CCN(C5CC5)CC4)CC2)c(CC)cc1C3=O` [Example E11, 8-(4-(4-cyclopropylpiperazin-1-yl)piperidin-1-yl)-9-ethyl-3-ethynyl-6,6-dimethyl-5,6-dihydro-11 H-benzo[b]carbazol-11-one], the IC50 came to 186 nM in experiment [1] and 59 nM against ALK kinase.
For `C#Cc1ccc2c3c([nH]c2c1)C(C)(C)c1cc(N2CCC(N4CCOCC4)CC2)c(C#N)cc1C3=O` [Example E12, 3-ethynyl-6,6-dimethyl-8-(4-morpholinopiperidin-1-yl)-11-oxo-6,11-dihydro-5H-benzo[b]carbazole-9-carbonitrile] the same measures were 8.71 nM and 6.78 nM.
Take `C#Cc1ccc2c3c([nH]c2c1)C(C)(C)c1cc(N2CCN(C)CC2)c(C#N)cc1C3=O` [Example E13, 3-ethynyl-6,6-dimethyl-8-(4-methylpiperazin-1-yl)-11-oxo-6,11-dihydro-5H-benzo[b]carbazole-9-carbonitrile]: the IC50 in experiment [1] came out at 7.52 nM; against ALK kinase, 5.76 nM.
For `C#Cc1ccc2c3c([nH]c2c1)C(C)(C)c1cc(N2CCC(N4CCCC4)CC2)c(C#N)cc1C3=O` [Example E14, 3-ethynyl-6,6-dimethyl-11-oxo-8-(4-(pyrrolidin-1-yl)piperidin-1-yl)-6,11-dihydro-5H-benzo[b]car bazole-9-carbonitrile], in that order: 11.4 nM and 6.51 nM.
With `C#Cc1ccc2c3c([nH]c2c1)C(C)(C)c1cc(N2CCC(N(C)C)CC2)c(C#N)cc1C3=O` [Example E15, 8-(4-(dimethylamino)piperidin-1-yl)-3-ethynyl-6,6-dimethyl-11-oxo-6,11-dihydro-5H-benzo[b]car bazole-9-carbonitrile], the IC50 is 8.29 nM in experiment [1] and 4.62 nM against ALK kinase.
For `C#Cc1ccc2c3c([nH]c2c1)C(C)(C)c1cc(N2CCC(N4CCN(C)CC4)CC2)c(C#N)cc1C3=O` [Example E16, 3-ethynyl-6,6-dimethyl-8-(4-(4-methylpiperazin-1-yl)piperidin-1-yl)-11-oxo-6,11-dihydro-5H-ben zo[b]carbazole-9-carbonitrile] the same measures were 3.27 nM and 5.7 nM.
On to `C#Cc1ccc2c3c([nH]c2c1)C(C)(C)c1cc(N2CCN(C4CC4)CC2)c(C#N)cc1C3=O` [Example E17, 8-(4-cyclopropylpiperazin-1-yl)-3-ethynyl-6,6-dimethyl-11-oxo-6,11-dihydro-5H-benzo[b]carbazole-9-carbonitrile], for which the IC50 was determined as 33.2 nM in experiment [1] and 49 nM against ALK kinase.
`C#Cc1ccc2c3c([nH]c2c1)C(C)(C)c1cc(N2CCC(N4CCN(C5CC5)CC4)CC2)c(C#N)cc1C3=O` [Example E18, 8-(4-(4-cyclopropylpiperazin-1-yl)piperidin-1-yl)-3-ethynyl-6,6-dimethyl-11-oxo-6,11-dihydro-5 H-benzo[b]carbazole-9-carbonitrile]: the IC50 turned out to be 1.71 nM in experiment [1] and 10.3 nM against ALK kinase.
For `C#Cc1ccc2c3c([nH]c2c1)C(C)(C)c1cc(N2CCN(C)CC2)c(Cl)cc1C3=O` [Example E19, 9-chloro-3-ethynyl-6,6-dimethyl-8-(4-methylpiperazin-1-yl)-5,6-dihydro-11H-benzo[b]carbazol-1 1-one], the IC50 in experiment [1] turned out to be 11.7 nM; against ALK kinase, 3.73 nM.
For `C#Cc1ccc2c3c([nH]c2c1)C(C)(C)c1cc(N2CCN(C4CC4)CC2)c(Cl)cc1C3=O` [Example E20, 9-chloro-8-(4-cyclopropylpiperazin-1-yl)-3-ethynyl-6,6-dimethyl-5,6-dihydro-11H-benzo[b]carbazol-11-one] the same measures were 55.9 nM and 40.1 nM.
For `C#Cc1ccc2c3c([nH]c2c1)C(C)(C)c1cc(N2CCC(N(C)C)CC2)c(Cl)cc1C3=O` [Example E21, 9-chloro-8-(4-(dimethylamino)piperidin-1-yl)-3-ethynyl-6,6-dimethyl-5,6-dihydro-11H-benzo[b]c arbazol-11-one], in that order: 10.4 nM and 12.7 nM.
`C#Cc1ccc2c3c([nH]c2c1)C(C)(C)c1cc(N2CCC(N4CCN(C)CC4)CC2)c(Cl)cc1C3=O` [Example E22, 9-chloro-3-ethynyl-6,6-dimethyl-8-(4-(4-methylpiperazin-1-yl)piperidin-1-yl)-5,6-dihydro-11H-be nzo[b]carbazol-11-one]: the IC50 came to 4.67 nM in experiment [1] and 13.5 nM at ALK kinase.
As for `C#Cc1ccc2c3c([nH]c2c1)C(C)(C)c1cc(N2CCC(N4CCOCC4)CC2)c(Cl)cc1C3=O` [Example E23, 9-chloro-3-ethynyl-6,6-dimethyl-8-(4-morpholinopiperidin-1-yl)-5,6-dihydro-11H-benzo[b]carbazol-11-one], the values for the IC50 (in experiment [1]; on ALK kinase) were 22.2 nM and 2.61 nM, respectively.
As to `C#Cc1ccc2c3c([nH]c2c1)C(C)(C)c1cc(N2CCNCC2)c(Cl)cc1C3=O` [Example E24, 9-chloro-3-ethynyl-6,6-dimethyl-8-(piperazin-1-yl)-5,6-dihydro-11H-benzo[b]carbazol-11-one], the values for the IC50 (in experiment [1]; against ALK kinase) were 18.2 nM and 3.29 nM, respectively.
For `C#Cc1ccc2c3c([nH]c2c1)C(C)(C)c1cc(N2CCC(N4CCC4)CC2)c(Cl)cc1C3=O` [Example E25, 8-(4-(azetidin-1-yl)piperidin-1-yl)-9-chloro-3-ethynyl-6,6-dimethyl-5,6-dihydro-11H-benzo[b]car bazol-11-one], in that order: 53 nM and 49.9 nM.
